The record followed here is patent US8835377B2, “Oral delivery of peptide pharmaceutical compositions” (UGP Therapeutics, Inc., priority 2004, dated 2014).

The data set in a line: Pharmacokinetics after duodenal injection of unformulated or formulated Dmt-DALDA in anesthetized rats (plasma, HPLC-UV). The class given is in vivo. To be noted: rats, formulated solution containing citric acid and lauroyl carnitine. How it is done:
In the experiments represented in the subject Figure, six anesthetized rats (which were color-coded as: red, white, blue, orange, green and yellow) were given 0.7 mL Dmt-DALDA (1.6 mg/mL) with a syringe through a 27 gauge needle into the duodenum. This injection procedure was followed due to the technical difficulty inherent in preparing capsules which can be swallowed by small animals the size of a rat. The intraduodanal injection, therefore, mimics the release of the components of an enteric-coated capsule formulation which would pass through the esophagus and stomach and release its contents in the duodenum. Three of the rats (red, white and blue) were given Unformulated Dmt-DALDA in which there were no additional components (i.e., other than the Dmt-DALDA), while the other three rats (orange, green and yellow) were given Formulated Dmt-DALDA which included, in addition to the Dmt-DALDA, 0.5M citric acid and lauroyl carnitine (10 mg/ml). Samples of blood were taken from the carotid artery through an indwelling catheter before and 5, 15, 30, 60 and 120 minutes after the administration of the respective formulations (i.e., Formulated and Unformulated). The blood samples were centrifuged and the resulting plasma supernatants were stored frozen at −20° C. […] Peptide was detected with an ultraviolet (UV) detector set at a wavelength of 210 nm. […] Table I, moreover, provides the standard deviations for the data obtained regarding each of the test rats, which standard deviations are also indicated in FIG. 1.
Table II (below) summarizes the pharmacokinetic parameters in rats of orally administered unformulated and formulated Dmt-DALDA as those terms are defined above. Cmax refers to the maximum concentration of peptide detected in the rat plasma. The area under the curve (AUC) is a measure of the extent of peptide absorption and is calculated by the trapezoidal rule from a plot of peptide concentration as a function of time. Tmax indicates when the maximum concentration of the Dmt-DALDA in the blood serum was obtained.

For `Cc1cc(O)cc(C)c1C[C@H](N)C(=O)N[C@H](CCCNC(=N)N)C(=O)N[C@@H](Cc1ccccc1)C(=O)N[C@@H](CCCCN)C(N)=O` [Dmt-DALDA, H-2,6-dimethyltyrosine-D-Arginine-Phenylalanine-Lysine-NH2], the “Cmax and AUC, formulated solution vs unformulated” value is “significantly enhanced”.
